# Calls of active or inactive are those of the source. The calls are words filed in the database; no cut-off is given here. Square brackets hold non-standard residues; d marks the D form. Peptide text beside a SMILES is read from it. Hyp = O=C(O)[C@@H]1C[C@@H](O)CN1; Ahx = NCCCCCC(=O)O
# Key:
# [1] = Drug uptake in human MCF7 cells at 10 uM FITC labelled form of compound after 12 hrs by flow cytometric analysis; format: ADME, cell-based; conditions: mcf7, 12 h
# [2] = biological target: T1, von Hippel-Lindau disease tumor suppressor/Estrogen receptor (Homo sapiens) (UniProt P03372+P40337); assay: Protac activity at VHL/ERalpha in human MCF7 cells assessed as degradation of ERalpha protein level at 10 uM after 12 hrs by Western blot analysis; format: cell-based
# MCF7 [3] = assay: Cytotoxicity against human MCF7 cells assessed as reduction in cell viability at 5 to 80 uM after 48 hrs by MTT assay; format: functional, cell-based; conditions: dose 5-80 µM
# MCF7 [4] = assay: Induction of apoptosis in human MCF7 cells assessed as early apoptotic cells at 10 uM after 12 hrs by annexinV-FITC/PI staining based flow cytometric analysis (reference value: 0.8 to 1.6%); format: functional
# MCF7 [5] = assay: Induction of apoptosis in human MCF7 cells assessed as late apoptotic cells at 10 uM after 12 hrs by annexinV-FITC/PI staining based flow cytometric analysis (reference value: 0.9 to 1.9%); format: functional
# MCF7 [6] = assay: Induction of apoptosis in human MCF7 cells assessed as viable cells at 10 uM after 12 hrs by annexinV-FITC/PI staining based flow cytometric analysis (reference value: 95.4 to 97.6%); format: functional; conditions: read-out: Activity
# MCF7 [7] = assay: Induction of apoptosis in human MCF7 cells assessed as necrotic cells at 10 uM after 12 hrs by annexinV-FITC/PI staining based flow cytometric analysis (reference value: 0.7 to 1.1%); format: functional
# 4T1 = assay: Antitumour activity against mouse 4T1 cells implanted in BALB/c mouse assessed as inhibition in tumor growth at 10 umol/kg administered peri-tumor injection for 21 days relative to control; format: functional; conditions: 4T1, 504 h, time 21 day, read-out: TGI
# MDA-MB-231 = assay: Cytotoxicity against human MDA-MB-231 cells assessed as reduction in cell viability at 5 to 80 uM after 48 hrs by MTT assay; format: functional, cell-based; conditions: dose 5-80 µM
# A2780 = assay: Cytotoxicity against human A2780 cells assessed as reduction in cell viability at 5 to 80 uM after 48 hrs by MTT assay; format: functional, cell-based; conditions: dose 5-80 µM
# HUVEC = assay: Cytotoxicity against human HUVEC cells assessed as reduction in cell viability at 5 to 80 uM after 48 hrs by MTT assay; format: cell-based; conditions: dose 5-80 µM
# MCF7 [8] = assay: Cytotoxicity against human MCF7 cells assessed as reduction in cell viability after 48 hrs by MTT assay; format: functional, cell-based
# [9] = Drug uptake in human MCF7 cells FITC labelled form of compound by flow cytometric analysis; format: ADME, cell-based; conditions: dose lower 2 µM, time lower 2 hrs, dose upper 16 µM, time upper 24 hrs
# [10] = biological target: T1, von Hippel-Lindau disease tumor suppressor/Estrogen receptor (Homo sapiens); assay: Protac activity at VHL/ERalpha in human A2780 cells assessed as degradation of ERalpha protein level at 10 uM after 12 hrs by Western blot analysis; format: cell-based
# MCF7 [11] = assay: Induction of apoptosis in human MCF7 cells assessed as increase in necrotic cells after 12 hrs by annexinV-FITC/PI staining based flow cytometric analysis; format: functional, cell-based; conditions: dose 5-20 µM
# MCF7 [12] = assay: Induction of apoptosis in human MCF7 cells assessed as late apoptotic cells at 20 uM after 12 hrs by annexinV-FITC/PI staining based flow cytometric analysis (reference value: 0.9 to 1.9%); format: functional
# MCF7 [13] = assay: Induction of apoptosis in human MCF7 cells assessed as viable cells at 20 uM after 12 hrs by annexinV-FITC/PI staining based flow cytometric analysis (reference value: 95.4 to 97.6%); format: functional; conditions: read-out: Activity
# MCF7 [14] = assay: Induction of apoptosis in human MCF7 cells assessed as viable cells at 5 uM after 12 hrs by annexinV-FITC/PI staining based flow cytometric analysis (reference value: 95.4 to 97.6%); format: functional; conditions: read-out: Activity
# [15] = Drug uptake in human MCF7 cells at 10 uM FITC labelled form of compound after 3 hrs by Hoechst 33258 staining based fluorescence microscopic analysis; format: ADME, cell-based; conditions: mcf7, 3 h
# [16] = biological target: T1, von Hippel-Lindau disease tumor suppressor/Estrogen receptor (Homo sapiens); assay: Protac activity at VHL/ERalpha in human MCF7 cells assessed as increase in ubiquitinated-ERalpha at 10 uM after 6 hrs in presence of MG-132 by Western blot analysis; format: cell-based
# [17] = biological target: von Hippel-Lindau disease tumor suppressor/Progesterone receptor (Homo sapiens) (UniProt P06401+P40337); assay: Protac activity at VHL/PR in human MCF7 cells assessed as degradation of PR protein level at 10 uM after 12 hrs by Western blot analysis; format: cell-based
# [18] = biological target: von Hippel-Lindau disease tumor suppressor/Vitamin D3 receptor (Homo sapiens) (UniProt P11473+P40337); assay: Protac activity at VHL/VDR in human MCF7 cells assessed as degradation of VDR protein level at 10 uM after 12 hrs by Western blot analysis; format: cell-based
# MCF7 [19] = assay: Induction of apoptosis in human MCF7 cells assessed as necrotic cells at 5 uM after 12 hrs by annexinV-FITC/PI staining based flow cytometric analysis (reference value: 0.7 to 1.1%); format: functional
# MCF7 [20] = assay: Induction of apoptosis in human MCF7 cells assessed as necrotic cells at 20 uM after 12 hrs by annexinV-FITC/PI staining based flow cytometric analysis (reference value: 0.7 to 1.1%); format: functional
# MCF7 [21] = assay: Induction of apoptosis in human MCF7 cells assessed as early apoptotic cells at 5 uM after 12 hrs by annexinV-FITC/PI staining based flow cytometric analysis (reference value: 0.8 to 1.6%); format: functional
# MCF7 [22] = assay: Induction of apoptosis in human MCF7 cells assessed as increase in late apoptotic cells after 12 hrs by annexinV-FITC/PI staining based flow cytometric analysis; format: functional, cell-based; conditions: dose 5-20 µM
# MCF7 [23] = assay: Induction of apoptosis in human MCF7 cells assessed as late apoptotic cells at 5 uM after 12 hrs by annexinV-FITC/PI staining based flow cytometric analysis (reference value: 0.9 to 1.9%); format: functional
# [24] = Toxicity in BALB/c mouse implanted with mouse 4T1 cells assessed as change in body weight at 10 umol/kg administered peri-tumor injection for 21 days; conditions: in vivo, other, 504 h, dose 10 µmol/kg, time 21 day
# MCF7 [25] = assay: Induction of apoptosis in human MCF7 cells assessed as early apoptotic cells at 20 uM after 12 hrs by annexinV-FITC/PI staining based flow cytometric analysis (reference value: 0.8 to 1.6%); format: functional
# MCF7 [26] = assay: Cytotoxicity against human MCF7 cells assessed as reduction in cell viability at 20 uM after 48 hrs by MTT assay; format: functional, cell-based
# T1 sequence (P03372 whole entry, looked up): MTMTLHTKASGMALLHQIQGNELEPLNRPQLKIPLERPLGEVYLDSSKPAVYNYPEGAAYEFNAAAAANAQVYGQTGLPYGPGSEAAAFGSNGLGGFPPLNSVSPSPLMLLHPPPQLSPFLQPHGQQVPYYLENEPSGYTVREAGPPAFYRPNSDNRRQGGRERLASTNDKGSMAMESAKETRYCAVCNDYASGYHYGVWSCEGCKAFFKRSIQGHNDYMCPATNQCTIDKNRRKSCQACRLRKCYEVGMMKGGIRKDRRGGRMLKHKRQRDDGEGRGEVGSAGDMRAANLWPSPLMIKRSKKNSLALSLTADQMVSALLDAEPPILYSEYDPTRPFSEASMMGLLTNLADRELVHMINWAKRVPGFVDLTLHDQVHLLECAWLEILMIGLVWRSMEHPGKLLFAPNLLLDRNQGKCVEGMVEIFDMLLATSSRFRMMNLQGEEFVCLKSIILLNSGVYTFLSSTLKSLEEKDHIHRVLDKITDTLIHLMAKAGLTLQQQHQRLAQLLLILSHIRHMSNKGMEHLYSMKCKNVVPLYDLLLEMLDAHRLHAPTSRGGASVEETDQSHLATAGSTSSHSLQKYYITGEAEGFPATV
# T1 sequence (P40337 whole entry, looked up): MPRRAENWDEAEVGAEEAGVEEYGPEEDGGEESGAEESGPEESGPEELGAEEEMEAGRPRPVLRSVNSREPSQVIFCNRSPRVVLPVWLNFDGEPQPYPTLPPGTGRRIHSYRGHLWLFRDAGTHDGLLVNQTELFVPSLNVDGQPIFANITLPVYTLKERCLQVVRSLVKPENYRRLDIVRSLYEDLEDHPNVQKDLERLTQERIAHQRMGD
# Chain of von Hippel-Lindau disease tumor suppressor/Vitamin D3 receptor (Homo sapiens) (P11473 whole entry, looked up): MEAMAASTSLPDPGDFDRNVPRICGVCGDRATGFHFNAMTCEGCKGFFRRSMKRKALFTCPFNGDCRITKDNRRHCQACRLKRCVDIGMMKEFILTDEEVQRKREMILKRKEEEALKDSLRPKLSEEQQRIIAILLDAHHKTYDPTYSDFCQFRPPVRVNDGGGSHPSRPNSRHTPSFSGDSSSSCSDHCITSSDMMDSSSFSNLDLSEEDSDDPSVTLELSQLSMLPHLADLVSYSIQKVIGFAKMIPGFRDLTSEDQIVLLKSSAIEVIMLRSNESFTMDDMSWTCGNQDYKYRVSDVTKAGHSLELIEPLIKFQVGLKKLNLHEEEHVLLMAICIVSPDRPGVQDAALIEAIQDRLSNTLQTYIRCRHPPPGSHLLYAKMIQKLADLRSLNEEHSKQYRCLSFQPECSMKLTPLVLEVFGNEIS
# Chain of von Hippel-Lindau disease tumor suppressor/Vitamin D3 receptor (Homo sapiens) (P40337 whole entry, looked up): as the sequence (P40337 whole entry, looked up) above
# Chain of von Hippel-Lindau disease tumor suppressor/Progesterone receptor (Homo sapiens) (P06401 whole entry, looked up): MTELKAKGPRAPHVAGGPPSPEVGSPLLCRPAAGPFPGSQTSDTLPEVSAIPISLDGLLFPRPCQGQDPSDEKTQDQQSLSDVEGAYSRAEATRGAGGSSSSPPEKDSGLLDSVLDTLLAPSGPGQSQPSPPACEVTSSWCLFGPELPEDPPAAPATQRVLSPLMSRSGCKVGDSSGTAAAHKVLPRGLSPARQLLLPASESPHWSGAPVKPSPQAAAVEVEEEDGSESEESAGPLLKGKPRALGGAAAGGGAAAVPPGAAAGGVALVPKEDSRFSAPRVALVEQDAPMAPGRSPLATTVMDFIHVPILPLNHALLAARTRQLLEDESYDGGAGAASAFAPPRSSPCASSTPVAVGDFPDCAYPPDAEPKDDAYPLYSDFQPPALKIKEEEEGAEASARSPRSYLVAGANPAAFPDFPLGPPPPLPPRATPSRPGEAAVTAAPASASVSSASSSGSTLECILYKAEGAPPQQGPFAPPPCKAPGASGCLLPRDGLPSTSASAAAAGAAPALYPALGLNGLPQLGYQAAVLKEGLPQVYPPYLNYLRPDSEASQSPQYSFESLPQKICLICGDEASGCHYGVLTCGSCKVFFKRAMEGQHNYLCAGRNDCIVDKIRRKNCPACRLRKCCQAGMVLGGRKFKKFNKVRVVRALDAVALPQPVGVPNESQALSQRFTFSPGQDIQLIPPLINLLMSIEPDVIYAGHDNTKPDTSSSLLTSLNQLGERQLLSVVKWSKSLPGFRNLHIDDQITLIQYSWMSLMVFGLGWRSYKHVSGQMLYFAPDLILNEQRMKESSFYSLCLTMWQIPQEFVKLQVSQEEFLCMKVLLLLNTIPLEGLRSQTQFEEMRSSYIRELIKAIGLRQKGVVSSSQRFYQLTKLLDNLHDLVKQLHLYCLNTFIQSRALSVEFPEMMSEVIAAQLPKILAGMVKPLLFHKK
# Chain of von Hippel-Lindau disease tumor suppressor/Progesterone receptor (Homo sapiens) (P40337 whole entry, looked up): as the sequence (P40337 whole entry, looked up) above
smiles,measurement,setting,value
CC[C@H](C)[C@H](NC(=O)[C@H](Cc1ccc(O)cc1)NC(=O)[C@@H]1C[C@@H](O)CN1C(=O)[C@H](C)NC(=O)[C@H](CC(C)C)NC(=O)CCCCCNC(=O)[C@H](CCC(N)=O)NC(=O)C(CC(C)(C)C)NC(=O)[C@H](CC(C)C)NC(=O)[C@H](CCCNC(=N)N)NC(=O)[C@@H]1CNC(=O)C(N[C@@H](CCCNC(=N)N)C(N)=O)CC(=O)N[C@@H]([C@@H](C)CC)C(=O)N[C@@H](CC(C)C)C(=O)N1)C(N)=O (some centres undefined),Drug uptake,[1],Active
same,Activity,[2],Active
same,Activity,MCF7 [3],Active
same,Activity,MCF7 [4],0.4%
same,Activity,MCF7 [5],7.7%
same,viability at 10 µM,MCF7 [6],76.7%
same,Activity,MCF7 [7],15.2%
CC/C(=C(\c1ccccc1)c1ccc(OCCN(C)C)cc1)c1ccccc1 [TAMOXIFEN],Activity,MCF7 [3],Active
same,inhibition in vivo at 10 µmol/kg,4T1,36%
CC[C@H](C)[C@H](NC(=O)[C@H](Cc1ccc(O)cc1)NC(=O)[C@@H]1C[C@@H](O)CN1C(=O)[C@H](C)NC(=O)[C@H](CC(C)C)NC(=O)CCCCCNC(=O)[C@H](CCC(N)=O)NC(=O)C(CC(C)(C)C)NC(=O)C(CC(C)(C)C)NC(=O)[C@H](CCCNC(=N)N)NC(=O)[C@@H]1CNC(=O)C(N[C@@H](CCCNC(=N)N)C(N)=O)CC(=O)N[C@@H]([C@@H](C)CC)C(=O)NC(CC(C)(C)C)C(=O)N1)C(N)=O (some centres undefined),Activity,MDA-MB-231,Active
same,Activity,A2780,Active
same,Activity,HUVEC,Non-Toxic
same,Activity,MCF7 [8],Dose-dependent effect
same,IC50,"MCF7 [8]; MCF7, 48 h",9.7 µM
same,Drug uptake,[1],Active
same,Activity,[2],Active
same,Activity,MCF7 [3],Active
same,Drug uptake,[9],Dose-dependent effect and Tde
same,inhibition in vivo at 10 µmol/kg,4T1,67%
same,Activity,[10],Active
same,Activity,MCF7 [11],Dose-dependent effect
same,Activity,MCF7 [12],26.2%
same,Activity,MCF7 [4],0.7%
same,viability at 20 µM,MCF7 [13],28.8%
same,viability at 5 µM,MCF7 [14],87.2%
same,Drug uptake,[15],Active
same,Activity,[16],Active
same,Activity,[17],inactive
same,Activity,[18],inactive
same,Activity,MCF7 [5],13.6%
same,Activity,MCF7 [19],5.5%
same,Activity,MCF7 [20],44.6%
same,Activity,MCF7 [21],1.3%
same,Activity,MCF7 [22],Dose-dependent effect
same,Activity,MCF7 [23],6%
same,Activity,[24],Non-Toxic
same,Activity,MCF7 [25],0.4%
same,viability at 10 µM,MCF7 [6],59.5%
same,Activity,MCF7 [7],26.2%
CC[C@H](C)[C@H](NC(=O)[C@H](Cc1ccc(O)cc1)NC(=O)[C@@H]1C[C@@H](O)CN1C(=O)[C@H](C)NC(=O)[C@H](CC(C)C)NC(=O)CCCCCNC(=O)[C@H](CCC(N)=O)NC(=O)[C@H](CC(C)C)NC(=O)[C@H](CC(C)C)NC(=O)[C@H](CCCNC(=N)N)NC(=O)[C@@H]1CNC(=O)C(N[C@@H](CCCNC(=N)N)C(N)=O)CC(=O)N[C@@H]([C@@H](C)CC)C(=O)N[C@@H](CC(C)C)C(=O)N1)C(N)=O (some centres undefined),Drug uptake,[1],Active
same,Activity,[2],Active
same,Activity,MCF7 [3],Active
same,inhibition in vivo at 10 µmol/kg,4T1,52%
same,Activity,MCF7 [4],1.3%
same,Activity,MCF7 [5],5.8%
same,Activity,[24],Non-Toxic
same,viability at 10 µM,MCF7 [6],85%
same,Activity,MCF7 [7],8%
CC[C@H](C)[C@H](NC(=O)[C@H](Cc1ccc(O)cc1)NC(=O)[C@@H]1C[C@@H](O)CN1C(=O)[C@H](C)NC(=O)[C@H](CC(C)C)NC(=O)CCCCCNC(=O)[C@H](CCC(N)=O)NC(=O)[C@H](CC(C)C)NC(=O)C(CC(C)(C)C)NC(=O)[C@H](CCCNC(=N)N)NC(=O)[C@@H]1CNC(=O)C(N[C@@H](CCCNC(=N)N)C(N)=O)CC(=O)N[C@@H]([C@@H](C)CC)C(=O)N[C@@H](CC(C)C)C(=O)N1)C(N)=O (some centres undefined),Drug uptake,[1],Active
same,Activity,[2],Active
same,Activity,MCF7 [3],Active
same,Activity,MCF7 [4],0.9%
same,Activity,MCF7 [5],7.9%
same,viability at 10 µM,MCF7 [6],78.5%
same,Activity,MCF7 [7],12.7%
CC[C@H](C)[C@H](NC(=O)[C@H](Cc1ccc(O)cc1)NC(=O)[C@@H]1C[C@@H](O)CN1C(=O)[C@H](C)NC(=O)[C@H](CC(C)C)NC(=O)CCCCCNC(=O)[C@H](CCC(N)=O)NC(=O)[C@H](CC(C)C)NC(=O)[C@H](CC(C)C)NC(=O)[C@H](CCCNC(=N)N)NC(=O)[C@@H]1CNC(=O)C(N[C@@H](CCCNC(=N)N)C(N)=O)CC(=O)N[C@@H]([C@@H](C)CC)C(=O)NC(CC(C)(C)C)C(=O)N1)C(N)=O (some centres undefined),Drug uptake,[1],Active
same,Activity,[2],Active
same,Activity,MCF7 [3],Active
same,Activity,MCF7 [4],0.7%
same,Activity,MCF7 [5],7.1%
same,viability at 10 µM,MCF7 [6],80.2%
same,Activity,MCF7 [7],11.9%
CC[C@H](C)[C@H](NC(=O)[C@H](Cc1ccc(O)cc1)NC(=O)[C@@H]1C[C@@H](O)CN1C(=O)[C@H](C)NC(=O)[C@H](CC(C)C)NC(=O)CCCCCNC(=O)[C@H](CCC(N)=O)NC(=O)[C@H](CC(C)C)NC(=O)[C@H](CC(C)C)NC(=O)[C@H](CCCNC(=N)N)NC(=O)[C@H](Cc1c[nH]cn1)NC(=O)[C@H](CC(C)C)NC(=O)[C@@H](NC(=O)[C@H](CCCCN)NC(=O)[C@@H](N)Cc1c[nH]cn1)[C@@H](C)CC)C(N)=O (H-HKILHRLLQ[Ahx]LA[Hyp]YI-NH2),Drug uptake,[1],Active
same,Activity,[2],Active
same,Activity,MCF7 [4],0.9%
same,Activity,MCF7 [5],2.7%
same,viability at 10 µM,MCF7 [6],93.4%
same,Activity,MCF7 [26],Active
same,Activity,MCF7 [7],2.9%

# Source: ChEMBL document CHEMBL4706485, “Development of cell-permeable peptide-based PROTACs targeting estrogen receptor α” (Eur J Med Chem, 2020)
